Measurements reported in article PMC8026479 (Cancer Chemotherapy and Pharmacology, 2021).

How the values were obtained:
[1] = cited from earlier work
[2] = tested on: transition rate constant from G1 to cycling for HSPCs; experiment: Semi-mechanistic multi-compartment PK/PD model of hematopoiesis; design: species or system mouse, rat, and dog; conditions: conservative modification of literature estimate; elimination rate constant 1/h
Source text: Owing to the invasive nature of the PD marker collection (i.e. bone marrow aspiration), a semi-mechanistic PK/PD model based on animal PK/PD data and human PK data was developed to guide the selection of an optimal dose level for bone marrow aspiration in humans during dose escalation in the Phase I first-in-human study. The model was constructed using PK data from four species (mouse, rat, dog, and human) and PD data from three species (mouse, rat, and dog; Online Resources 1 and 2).
The PK/multi-compartment PD model was based on a myelosuppression model previously published by Friberg et al., with modifications. […] In the model used in the current study, stem cells and progenitor cells were separated into two compartments, with experimental data measured for each compartment. […] Another important deviation from the Friberg model was the mechanism postulated for the homeostasis of the […] (PMNs). We postulated that the feedback mechanism has a set point target and that deviations from that target would accelerate (in the case of too few PMNs) or decelerate (in the case of too many PMNs) the transition of G1-phase cells to S-phase cells in the stem cell population.
The model was constructed in two stages. First, preclinical PK data (e.g. doses, routes, and schedule of administration, observed concentrations) were compiled and modeled by allometric scaling. A sequential PK/PD modeling approach (population PK parameters and data approach) was then employed in which a semi-mechanistic PD model with various physiological compartments was created, and specific assumptions entered (Online Resource 3). Traditional forward addition/backward elimination was used for PK modeling. […] Many parameters in this complex model could not be estimated and were fixed either to the literature values or values selected on the basis of discussions with domain experts and sensitivity analysis. In preclinical animal models, the PD analysis modeled bone marrow cells positive for 5′-ethynyl-2′-deoxyuridine (EdU) and peripheral neutrophil counts simultaneously. […]

pharmacologic activity half-life of 5-FU [2]: 42 min
SMILES: O=c1[nH]cc(F)c(=O)[nH]1 [5-FU, 5-fluorouracil, reference compound]
half-life of 5-FU, literature estimate [1]: 8 to 20 min
